Results: patent US11192891B2, “Diazaspiro ROCK inhibitors” (BRISTOL-MYERS SQUIBB COMPANY, priority 2017, dated 2021)

The molecules below were run against ROCK2 (Homo sapiens, UniProt O75116) (assay: ROCK kinase inhibition assay, FITC peptide substrate, LABCHIP 3000 readout). Settings: 5 μM ATP, 1.5 μM peptide substrate.
Format: biochemical
In short: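 Tested across a concentration range, with percent inhibition of kinase activity derived per concentration. Peptide phosphorylation, initiated by adding the Rho kinase variant (final DMSO <2%), was quenched with EDTA and substrate/product resolved by mobility shift.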

ROCK2, sequence (O75116 whole entry, species assumed): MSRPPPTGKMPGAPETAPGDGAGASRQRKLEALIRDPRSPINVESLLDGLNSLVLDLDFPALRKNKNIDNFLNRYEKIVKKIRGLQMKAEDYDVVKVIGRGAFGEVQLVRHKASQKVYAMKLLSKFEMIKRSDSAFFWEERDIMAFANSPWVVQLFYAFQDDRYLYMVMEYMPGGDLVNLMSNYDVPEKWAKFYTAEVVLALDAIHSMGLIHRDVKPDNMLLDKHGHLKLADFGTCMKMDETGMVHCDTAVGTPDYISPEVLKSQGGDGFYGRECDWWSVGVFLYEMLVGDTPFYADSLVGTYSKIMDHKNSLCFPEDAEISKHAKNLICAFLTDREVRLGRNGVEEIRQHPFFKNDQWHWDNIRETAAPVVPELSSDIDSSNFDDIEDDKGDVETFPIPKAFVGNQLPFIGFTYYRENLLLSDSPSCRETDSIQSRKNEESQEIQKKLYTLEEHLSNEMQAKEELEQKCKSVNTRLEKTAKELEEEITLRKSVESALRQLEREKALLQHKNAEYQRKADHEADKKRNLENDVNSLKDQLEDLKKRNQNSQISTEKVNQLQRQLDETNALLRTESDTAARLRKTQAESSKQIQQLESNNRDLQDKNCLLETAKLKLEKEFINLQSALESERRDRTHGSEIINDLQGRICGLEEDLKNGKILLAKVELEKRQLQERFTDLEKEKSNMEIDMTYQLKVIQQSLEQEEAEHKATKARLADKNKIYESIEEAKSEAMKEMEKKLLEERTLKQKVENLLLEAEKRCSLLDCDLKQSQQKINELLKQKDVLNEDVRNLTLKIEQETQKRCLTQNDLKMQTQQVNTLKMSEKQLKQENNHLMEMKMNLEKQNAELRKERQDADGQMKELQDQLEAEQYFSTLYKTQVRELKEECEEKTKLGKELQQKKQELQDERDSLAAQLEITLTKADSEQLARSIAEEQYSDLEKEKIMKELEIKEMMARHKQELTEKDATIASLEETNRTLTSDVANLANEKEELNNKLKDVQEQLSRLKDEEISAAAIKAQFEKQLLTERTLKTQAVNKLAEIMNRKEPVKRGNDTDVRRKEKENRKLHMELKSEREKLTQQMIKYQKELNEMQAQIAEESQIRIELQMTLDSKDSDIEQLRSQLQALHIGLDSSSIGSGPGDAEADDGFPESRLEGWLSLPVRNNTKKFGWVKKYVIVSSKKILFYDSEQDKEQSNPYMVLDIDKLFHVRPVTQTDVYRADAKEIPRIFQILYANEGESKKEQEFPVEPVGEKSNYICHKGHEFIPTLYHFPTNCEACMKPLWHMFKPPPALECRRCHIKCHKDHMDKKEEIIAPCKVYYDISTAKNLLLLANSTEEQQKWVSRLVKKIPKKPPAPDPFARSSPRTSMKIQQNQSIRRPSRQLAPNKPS

| IC50 [µM] | Structure (SMILES) |
| --- | --- |
| 0.0022 | COc1cc(N2CCC3(CCN(C(=O)c4ccc(N5CCN(Cc6ccc(Cl)cc6)CC5)cc4)CC3)C2=O)ccc1-c1cn[nH]c1 [Example 227, 8-(4-{4-[(4-chlorophenyl)methyl]piperazin-1-yl}benzoyl)-2-[3-methoxy-4-(1H-pyrazol-4-yl)phenyl]-2,8-diazaspiro[4.5]decan-1-one] |
| 0.027 | COc1cc(N2CCC3(CCN(C(=O)c4cc5ccccc5s4)CC3)C2=O)ccc1-c1cn[nH]c1 [Example 76, 8-(1-benzothiphene-2-carbonyl)-2-[3-methoxy-4-(1H-pyrazol-4-yl)phenyl]-2,8-diazaspiro[4.5]decan-1-one] |
| 0.006 | COc1cc(N2CCC3(CCN(C(=O)c4cc5n(n4)CCNC5=O)CC3)C2=O)ccc1-c1cn[nH]c1 [Example 114, 2-[3-methoxy-4-(1H-pyrazol-4-yl)phenyl]-8-{4-oxo-4H,5H,6H,7H-pyrazolo[1,5-a]pyrazine-2-carbonyl}-2,8-diazaspiro[4.5]decan-1-one] |
| 0.017 | COc1cc(N2CCC3(CCN(C(=O)c4ccc(CN5CCCC5)cc4)CC3)C2=O)ccc1-c1cn[nH]c1 [Example 168, 2-[3-methoxy-4-(1H-pyrazol-4-yl)phenyl]-8-{4-[(pyrrolidin-1-yl)methyl]benzoyl}-2,8-diazaspiro[4.5]decan-1-one] |
| 0.0112 | COc1cc(N2CCC3(CCN(C(=O)c4ccc(N5CCOCC5)c(F)c4)CC3)C2=O)ccc1-c1cn[nH]c1 [Example 127, 8-[3-fluoro-4-(morpholin-4-yl)benzoyl]-2-[3-methoxy-4-(1H-pyrazol-4-yl)phenyl]-2,8-diazaspiro[4.5]decan-1-one] |
| 2.46 | COc1ccc(NC(=O)N2CCC3(CC2)CCN(c2ccc(-c4cn[nH]c4)c(OC)c2)C3=O)cc1 [Example 217, 2-[3-methoxy-4-(1H-pyrazol-4-yl)phenyl]-N-(4-methoxyphenyl)-1-oxo-2,8-diazaspiro[4.5]decane-8-carboxamide] |
| 2.17 | COc1cc(N2CCC3(CCN(C(=O)C4CCC(C(N)=O)CC4)CC3)C2=O)ccc1-c1cn[nH]c1 (centres unmarked) [Example 148, 4-{2-[3-methoxy-4-(H-pyrazol-4-yl)phenyl]-1-oxo-2,8-diazaspiro[4.5]decane-8-carbonyl}cyclohexane-1-carboxamide] |
| 0.0019 | COc1cc(N2CCC3(CCN(C(=O)c4ccc(N5CCN(Cc6nc7ccccc7s6)CC5)cc4)CC3)C2=O)ccc1-c1cn[nH]c1 [Example 229, 8-(4-{4-[(1,3-benzothiazol-2-yl)methyl]piperazin-1-yl}benzoyl)-2-[3-methoxy-4-(1H-pyrazol-4-yl)phenyl]-2,8-diazaspiro[4.5]decan-1-one] |
| 0.0089 | COc1cc(N2CCC3(CCN(C(=O)c4ccc(N5CCN(C(=O)OC(C)(C)C)CC5)cc4)CC3)C2=O)ccc1-c1cn[nH]c1 [Example 205, tert-butyl 4-(4-{2-[3-methoxy-4-(1H-pyrazol-4-yl)phenyl]-1-oxo-2,8-diazaspiro[4.5]decane-8-carbonyl}phenyl)piperazine-1-carboxylate] |
| 0.0021 | COc1cc(N2CCC3(CCN(C(=O)c4ccc(N5CCCC5)cn4)CC3)C2=O)ccc1-c1cn[nH]c1 [Example 54, 2-[3-methoxy-4-(1H-pyrazol-4-yl)phenyl]-8-[5-(pyrrolidin-1-yl)pyridine-2-carbonyl]-2,8-diazaspiro[4.5]decan-1-one] |
| 0.013 | COc1cc(N2CCC3(CCN(C(=O)c4ccc(N5CCCC5=O)cc4)CC3)C2=O)ccc1-c1cn[nH]c1 [Example 128, 2-[3-methoxy-4-(1H-pyrazol-4-yl)phenyl]-8-[4-(2-oxopyrrolidin-1-yl)benzoyl]-2,8-diazaspiro[4.5]decan-1-one] |
| 0.104 | COc1cc(N2CCC3(CCN(C(=O)c4ccc5ccccc5c4)CC3)C2=O)ccc1-c1cn[nH]c1 [Example 64, 2-[3-methoxy-4-(1H-pyrazol-4-yl)phenyl]-8-(naphthalene-2-carbonyl)-2,8-diazaspiro[4.5]decan-1-one] |
| 0.025 | COc1cc(N2CCC3(CCN(C(=O)c4ccc(-n5cncn5)cc4)CC3)C2=O)ccc1-c1cn[nH]c1 [Example 106, 2-[3-methoxy-4-(1H-pyrazol-4-yl)phenyl]-8-[4-(1H-1,2,4-triazol-1-yl)benzoyl]-2,8-diazaspiro[4.5]decan-1-one] |
| 0.005 | COc1cc(F)c(C(=O)N2CCC3(CC2)CCN(c2ccc(-c4cn[nH]c4)c(OC)c2)C3=O)c(F)c1 [Example 28, 8-(2,6-difluoro-4-methoxybenzoyl)-2-[3-methoxy-4-(1H-pyrazol-4-yl)phenyl]-2,8-diazaspiro[4.5]decan-1-one] |
| 0.0013 | CN1CCN(c2ccc(C(=O)N3CCC4(CC3)CCN(c3ccc(-c5ccncc5F)cc3)C4=O)cc2)CC1 [Example 33, 2-[4-(3-fluoropyridin-4-yl)phenyl]-8-[4-(4-methylpiperazin-1-yl)benzoyl]-2,8-diazaspiro[4.5]decan-1-one] |
| 0.054 | COc1ccc2c(c1)cc(C(=O)N1CCC3(CC1)CCN(c1ccc(-c4cn[nH]c4)c(OC)c1)C3=O)n2C [Example 156, 8-(5-methoxy-1-methyl-1H-indole-2-carbonyl)-2-[3-methoxy-4-(1H-pyrazol-4-yl)phenyl]-2,8-diazaspiro[4.5]decan-1-one] |
| 0.118 | COc1cc(N2CCC3(CCN(C(=O)c4cccc(Oc5ccccc5)c4)CC3)C2=O)ccc1-c1cn[nH]c1 [Example 57, 2-[3-methoxy-4-(1H-pyrazol-4-yl)phenyl]-8-(3-phenoxybenzoyl)-2,8-diazaspiro[4.5]decan-1-one] |
| 1.06 | COc1cc(N2CCC3(CCN(C(=O)c4cnn5cccnc45)CC3)C2=O)ccc1-c1cn[nH]c1 [Example 198, 2-[3-methoxy-4-(1H-pyrazol-4-yl)phenyl]-8-{pyrazolo[1,5-a]pyrimidine-3-carbonyl}-2,8-diazaspiro[4.5]decan-1-one] |
| 0.292 | COc1cc(N2CCC3(CCN(C(=O)c4cc(=O)n5nnnc5[nH]4)CC3)C2=O)ccc1-c1cn[nH]c1 [Example 129, 2-[3-methoxy-4-(1H-pyrazol-4-yl)phenyl]-8-{7-oxo-4H,7H-[1,2,3,4]tetrazolo[1,5-a]pyrimidine-5-carbonyl}-2,8-diazaspiro[4.5]decan-1-one] |
| 0.557 | COc1cc(N2CCC3(CCN(C(=O)c4ccc(C(F)(F)F)nc4)CC3)C2=O)ccc1-c1cn[nH]c1 [Example 87, 2-[3-methoxy-4-(1H-pyrazol-4-yl)phenyl]-8-[6-(trifluoromethyl)pyridine-3-carbonyl]-2,8-diazaspiro[4.5]decan-1-one] |
| 0.0037 | COc1cc(N2CCC3(CCN(C(=O)c4ccc(N5CCNC5=O)cc4)CC3)C2=O)ccc1-c1cn[nH]c1 [Example 139, 2-[3-methoxy-4-(1H-pyrazol-4-yl)phenyl]-8-[4-(2-oxoimidazolidin-1-yl)benzoyl]-2,8-diazaspiro[4.5]decan-1-one] |
| 0.012 | COc1cc(N2CCC3(CCN(C(=O)c4ccc(C(C)C)cc4)CC3)C2=O)ccc1-c1cn[nH]c1 [Example 92, 2-[3-methoxy-4-(1H-pyrazol-4-yl)phenyl]-8-[4-(propan-2-yl)benzoyl]-2,8-diazaspiro[4.5]decan-1-one] |
| 0.008 | COc1ccc(C(=O)N2CCC3(CC2)CCN(c2ccc(-c4cn[nH]c4)c(OC)c2)C3=O)c(F)c1 [Example 17, 8-(2-Fluoro-4-methoxybenzoyl)-2-[3-methoxy-4-(1H-pyrazol-4-yl)phenyl]-2,8-diazaspiro[4.5]decan-1-one] |
